These results are taken from ChEMBL document CHEMBL1201862, “PubChem BioAssay data set” (2004).

Counter-ions that a name gives are not always drawn.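 Test compounds were applied to cells in 96-well plates for 48 hours at 5 doses. Here, GI50 denotes the concentration required for 50% inhibition of growth.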 Calls of active or inactive are those of the source. Cut-off read from the data, not from the text of the source: active = GI50 up to about 1.1 µM and inactive = higher. Bounds are passed on as bounds.

Test systems include 786-0; A549; ACHN; CCRF-CEM; HOP-92; IGROV-1; KM12; M14; NCI-H226; NCI-H460; RXF 393; SF-539; SK-MEL-28; SK-MEL-5; SK-OV-3; SR; T47D; UACC-257; UO-31; HCC 2998.
Test in all cases: DTP human tumour cell line panel, 48 h

In the case of `CC(C)=CCc1c(O)c(CC=C(C)C)c2oc3c(c(=O)c2c1O)C(C=C(C)C)Oc1cc(O)ccc1-3` (configuration not stated), the GI50 (commonly the concentration giving 50% growth inhibition) was 6.98 µM (inactive) with 786-0; 5.2 µM (inactive) in the experiment on A549; 4.49 µM (inactive) in the experiment with ACHN; 0.804 µM (active) in the experiment on CCRF-CEM; 13.5 µM (inactive) in the experiment with HOP-92; 7.53 µM (inactive) with IGROV-1. The GI50 was 2.94 µM (inactive) with KM12; 7.69 µM (inactive) in the experiment on M14; 20.5 µM (inactive) with NCI-H226; 4.49 µM (inactive) in the experiment on NCI-H460; 3.12 µM (inactive) in the experiment with RXF 393; 11.7 µM (inactive) with SF-539. For the same compound, the GI50 in the experiment with SK-MEL-28 is 7.53 µM (inactive); in the experiment on SK-MEL-5, 8.53 µM (inactive); with SK-OV-3, 14.7 µM (inactive); in the experiment on SR, 2.49 µM (inactive); in the experiment with T47D, 3.5 µM (inactive); in the experiment on UACC-257, 14 µM (inactive). Also, the GI50 in the experiment on UO-31 was 4.19 µM (inactive).

In the case of `Cc1ccc(O)c(Cc2nc3ccccc3nc2-c2cccc(Cl)c2)c1`, the GI50 in the experiment on 786-0 is > 100 µM (inactive); with A549, 43.9 µM (inactive); with ACHN, 49 µM (inactive); in the experiment with HCC 2998, 36.1 µM (inactive); in the experiment with HOP-92 it was 12.5 µM (inactive); with IGROV-1, 35.2 µM (inactive). The GI50 with KM12 is 59.6 µM (inactive); with M14 it was > 100 µM (inactive); with NCI-H226 it was 44.9 µM (inactive); in the experiment on NCI-H460, 54.3 µM (inactive); in the experiment on RXF 393, > 100 µM (inactive); in the experiment with SF-539, 87.1 µM (inactive). Besides, the GI50 is 40.2 µM (inactive) in the experiment with SK-MEL-5; > 100 µM (inactive) with SK-OV-3; 24.7 µM (inactive) in the experiment on SR; 79.8 µM (inactive) in the experiment with T47D; 74.6 µM (inactive) in the experiment on UACC-257; 32.1 µM (inactive) in the experiment on UO-31.

Take `CC(C)(C)OC(=O)NCCCCCCC(=O)Cc1ccccc1`: the GI50 in the experiment with 786-0, with A549, in the experiment with ACHN, with CCRF-CEM, in the experiment on HCC 2998 and in the experiment with HOP-92 was > 100 µM (inactive) throughout. For the same compound, the GI50 in the experiment with IGROV-1, in the experiment with KM12, in the experiment with M14, in the experiment on NCI-H226, in the experiment on NCI-H460 and in the experiment with RXF 393 was > 100 µM (inactive) throughout. The GI50 in the experiment on SK-MEL-28 is > 100 µM (inactive); with SK-MEL-5, 60.8 µM (inactive); in the experiment on SK-OV-3, > 100 µM (inactive); in the experiment with SR, > 100 µM (inactive); in the experiment on T47D, > 100 µM (inactive); in the experiment with UACC-257, > 100 µM (inactive). The GI50 with UO-31 is > 100 µM (inactive).

In the case of `CCc1ccc2c(c1)N(CC(C)CN(C)C)c1ccccc1S2` (configuration not stated) [ETYMEMAZINE HYDROCHLORIDE], the GI50 with 786-0 was 4.7 µM (inactive); in the experiment on A549 it was 8.39 µM (inactive); in the experiment on ACHN, 5.21 µM (inactive); in the experiment on CCRF-CEM, 2.18 µM (inactive); in the experiment with HOP-92, 4.66 µM (inactive); in the experiment with IGROV-1 it was 4.98 µM (inactive). Also, the GI50 in the experiment with KM12 is 3.61 µM (inactive); with M14, 2.12 µM (inactive); with NCI-H226, 9.86 µM (inactive); in the experiment on NCI-H460, 3.33 µM (inactive); in the experiment with RXF 393 it was 2.79 µM (inactive); in the experiment with SF-539, 10.2 µM (inactive). Also, the GI50 in the experiment with SK-MEL-28 is 2.21 µM (inactive); in the experiment with SK-MEL-5, 3.78 µM (inactive); in the experiment on SK-OV-3, 6.53 µM (inactive); in the experiment with SR, 0.298 µM (active); in the experiment with T47D, 3.66 µM (inactive); in the experiment with UACC-257, 2.74 µM (inactive). For the same compound, the GI50 in the experiment with UO-31 was 2.73 µM (inactive).

On to `CC1(C)C=Cc2c(cc(O)c3c(=O)c4cc(Cl)ccc4[nH]c23)O1`, for which the GI50 in the experiment with 786-0 is 3.84 µM (inactive); in the experiment with A549, 3.1 µM (inactive); with ACHN, 2.42 µM (inactive); with CCRF-CEM, 3.08 µM (inactive); in the experiment on HCC 2998, 3.62 µM (inactive); in the experiment on HOP-92, 2.52 µM (inactive). For the same compound, the GI50 is 5.31 µM (inactive) in the experiment on IGROV-1; 2.2 µM (inactive) in the experiment on KM12; 1.98 µM (inactive) in the experiment on NCI-H460; 3.89 µM (inactive) in the experiment with RXF 393; 4.13 µM (inactive) with SF-539; 4 µM (inactive) with SK-MEL-28. In addition, the GI50 with SK-MEL-5 was 1.92 µM (inactive); with SK-OV-3, 2.72 µM (inactive); with SR it was 3.24 µM (inactive); with T47D, 3.69 µM (inactive); in the experiment with UACC-257, 2.87 µM (inactive); in the experiment with UO-31 it was 2.16 µM (inactive).

With `CN1CCN(c2ncc3c(n2)sc2c(=O)n(-c4ccccc4)cnc23)CC1`, the GI50 in the experiment with 786-0, in the experiment with A549, in the experiment on ACHN, in the experiment with CCRF-CEM, in the experiment with HCC 2998 and in the experiment on HOP-92 was > 100 µM (inactive) throughout. Moreover, the GI50 with IGROV-1, in the experiment on KM12, in the experiment with M14, in the experiment on NCI-H226, with NCI-H460 and with RXF 393 was > 100 µM (inactive) in each case. For the same compound, the GI50 in the experiment with SK-MEL-28, with SK-MEL-5, with SK-OV-3, with SR, with T47D and in the experiment with UACC-257 was > 100 µM (inactive) throughout. The GI50 in the experiment with UO-31 is > 100 µM (inactive).

As for `CC1C(c2ccccc2)OP(=O)(OC(C#N)c2ccccc2)N1C` (configuration not stated), the GI50 was > 100 µM (inactive) in the experiment on 786-0; > 100 µM (inactive) with A549; > 100 µM (inactive) in the experiment with ACHN; 29.2 µM (inactive) in the experiment on CCRF-CEM; 48.4 µM (inactive) in the experiment with HCC 2998; 89.9 µM (inactive) in the experiment with HOP-92. Besides, the GI50 in the experiment on IGROV-1 was > 100 µM (inactive); in the experiment with KM12 it was > 100 µM (inactive); in the experiment on M14, 97.7 µM (inactive); with NCI-H460 it was > 100 µM (inactive); in the experiment with RXF 393, > 100 µM (inactive); with SF-539, > 100 µM (inactive). In addition, the GI50 was > 100 µM (inactive) in the experiment on SK-MEL-28; > 100 µM (inactive) with SK-MEL-5; > 100 µM (inactive) in the experiment on SK-OV-3; 91.4 µM (inactive) in the experiment with SR; 40.8 µM (inactive) with T47D; 68.9 µM (inactive) in the experiment on UACC-257. For the same compound, the GI50 in the experiment with UO-31 was 97.3 µM (inactive).

As for `C=CCN1CCN([C@H](c2ccc(C(=O)N(CC)CC)cc2)c2cccc(OC)c2)CC1`, the GI50 is > 25 µM (inactive) with 786-0; > 25 µM (inactive) with A549; > 25 µM (inactive) with ACHN; 16.8 µM (inactive) in the experiment with HOP-92; > 25 µM (inactive) in the experiment with IGROV-1; > 25 µM (inactive) in the experiment with KM12. Also, the GI50 in the experiment on M14, with NCI-H226, with SF-539, in the experiment with SK-MEL-28, in the experiment on SK-MEL-5 and in the experiment on SK-OV-3 was > 25 µM (inactive) each time. The GI50 in the experiment with SR, in the experiment on T47D and in the experiment on UO-31 was > 25 µM (inactive) throughout.

Consider `Cc1cccc2nc3cccc(C(=O)NCCC[N+](C)(CCCNC(=O)c4cccc5nc6cccc(C)c6nc45)Cc4ccc([N+](=O)[O-])n4C)c3nc12`, for which the 50% growth inhibitory concentration (GI50) was 0.32 µM (active) in the experiment on 786-0; 0.348 µM (active) in the experiment on A549; 0.321 µM (active) in the experiment on ACHN; 0.94 µM (active) in the experiment on CCRF-CEM; 11.6 µM (inactive) with HCC 2998; > 100 µM (inactive) in the experiment with HOP-92. Besides, the GI50 with IGROV-1 was 0.703 µM (active); with KM12 it was 2.26 µM (inactive); in the experiment with M14 it was > 31.3 µM (inactive); in the experiment with NCI-H460, 0.405 µM (active); in the experiment with RXF 393, > 100 µM (inactive); in the experiment on SK-MEL-28, 3.94 µM (inactive). The GI50 in the experiment on SK-MEL-5 was 2.89 µM (inactive); in the experiment with SK-OV-3 it was 41.5 µM (inactive); in the experiment on SR, 0.294 µM (active); with T47D, 14.9 µM (inactive); in the experiment with UACC-257 it was > 31.6 µM (inactive); in the experiment on UO-31, 1.04 µM (active).

For `CCN(CC)CCCNc1ccc([N+](=O)[O-])c2nc3ccccc3c(N)c12`, the GI50 is 0.445 µM (active) with 786-0; 0.537 µM (active) with A549; 0.324 µM (active) with ACHN; 0.45 µM (active) in the experiment with CCRF-CEM; 1.43 µM (inactive) in the experiment with HOP-92; 0.622 µM (active) with IGROV-1. The GI50 with KM12 was 0.392 µM (active); with M14, 1.08 µM (active); in the experiment on NCI-H226, 2.67 µM (inactive); in the experiment with NCI-H460, 0.379 µM (active); in the experiment on RXF 393 it was 0.37 µM (active); in the experiment on SF-539, 0.495 µM (active). The GI50 is 3.98 µM (inactive) in the experiment with SK-MEL-28; 0.241 µM (active) in the experiment with SK-MEL-5; 1.51 µM (inactive) in the experiment on SK-OV-3; 0.512 µM (active) in the experiment on SR; 0.867 µM (active) with T47D; 4.88 µM (inactive) in the experiment with UACC-257. Further, the GI50 with UO-31 was 1.57 µM (inactive).

`C/C(=N\NC(=S)NCc1ccccc1)c1nc2cccnc2[nH]1`: the GI50 with 786-0 was 6.92 µM (inactive); with A549, 6.38 µM (inactive); with ACHN it was 3.57 µM (inactive); in the experiment with CCRF-CEM it was 3.27 µM (inactive); in the experiment on HCC 2998, 20.1 µM (inactive); in the experiment on HOP-92, 4.37 µM (inactive). Further, the GI50 was 8 µM (inactive) in the experiment with IGROV-1; 6.34 µM (inactive) in the experiment with KM12; 6.01 µM (inactive) in the experiment with M14; 4.44 µM (inactive) in the experiment with NCI-H226; 4.29 µM (inactive) with NCI-H460; 5.73 µM (inactive) with SF-539. In addition, the GI50 in the experiment on SK-MEL-28 is 14.6 µM (inactive); with SK-MEL-5 it was 3.57 µM (inactive); in the experiment with SK-OV-3 it was 10.4 µM (inactive); in the experiment on SR, 4.62 µM (inactive); with T47D, 9.1 µM (inactive); in the experiment with UACC-257 it was 9.62 µM (inactive). Further, the GI50 in the experiment with UO-31 was 1.94 µM (inactive).
